According to ChEMBL document CHEMBL1150976, “The selectivity of protein kinase inhibitors: a further update” (Biochem J, 2007):

Assays:
[1] = molecular target: Mitogen-activated protein kinase 8 (Homo sapiens, UniProt P45983); assay: Percentage JNK1 activity remaining in the presence of 2uM inhibitor
[2] = molecular target: Maternal embryonic leucine zipper kinase (Homo sapiens) (UniProt Q14680); assay: Percentage MELK activity remaining in the presence of 2uM inhibitor
[3] = molecular target: Serine/threonine-protein kinase PLK1 (Homo sapiens, UniProt P53350); assay: Percentage PLK1 activity remaining in the presence of 2uM inhibitor
Serine/threonine-protein kinase PLK1, sequence (P53350 whole entry): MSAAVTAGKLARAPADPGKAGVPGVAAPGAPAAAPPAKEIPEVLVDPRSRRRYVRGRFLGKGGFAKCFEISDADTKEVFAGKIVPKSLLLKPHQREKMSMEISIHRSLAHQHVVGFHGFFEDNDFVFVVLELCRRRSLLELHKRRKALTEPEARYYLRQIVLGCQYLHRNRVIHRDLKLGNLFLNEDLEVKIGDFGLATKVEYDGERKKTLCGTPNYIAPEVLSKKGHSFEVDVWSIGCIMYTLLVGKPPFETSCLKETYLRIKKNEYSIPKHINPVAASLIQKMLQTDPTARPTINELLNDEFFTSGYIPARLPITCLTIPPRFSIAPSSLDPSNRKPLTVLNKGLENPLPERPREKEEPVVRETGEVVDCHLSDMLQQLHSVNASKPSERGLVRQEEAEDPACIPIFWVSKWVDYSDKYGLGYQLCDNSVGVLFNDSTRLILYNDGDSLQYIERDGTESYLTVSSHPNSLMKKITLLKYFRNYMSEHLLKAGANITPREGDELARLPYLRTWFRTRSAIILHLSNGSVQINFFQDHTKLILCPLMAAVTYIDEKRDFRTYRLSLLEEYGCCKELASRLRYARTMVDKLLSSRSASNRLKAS

[4] = molecular target: T1, Mitogen-activated protein kinase 12 (Homo sapiens) (UniProt P53778); assay: Percentage p38-gamma activity remaining in the presence of 2uM inhibitor
T1 sequence (whole entry): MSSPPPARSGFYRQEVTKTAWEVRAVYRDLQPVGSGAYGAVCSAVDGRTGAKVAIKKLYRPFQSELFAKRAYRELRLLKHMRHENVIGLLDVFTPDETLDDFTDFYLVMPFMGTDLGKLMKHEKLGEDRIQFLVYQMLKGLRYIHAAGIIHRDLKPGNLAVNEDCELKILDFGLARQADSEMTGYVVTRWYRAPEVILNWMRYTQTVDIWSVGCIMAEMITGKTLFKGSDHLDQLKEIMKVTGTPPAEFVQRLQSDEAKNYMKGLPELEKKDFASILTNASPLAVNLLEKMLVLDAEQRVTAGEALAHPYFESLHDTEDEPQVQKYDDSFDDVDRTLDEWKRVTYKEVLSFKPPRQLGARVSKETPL

[5] = molecular target: T2, Protein kinase C zeta type (Homo sapiens) (UniProt Q05513); assay: Percentage PKCzeta activity remaining in the presence of 2uM inhibitor
T2 sequence (whole entry): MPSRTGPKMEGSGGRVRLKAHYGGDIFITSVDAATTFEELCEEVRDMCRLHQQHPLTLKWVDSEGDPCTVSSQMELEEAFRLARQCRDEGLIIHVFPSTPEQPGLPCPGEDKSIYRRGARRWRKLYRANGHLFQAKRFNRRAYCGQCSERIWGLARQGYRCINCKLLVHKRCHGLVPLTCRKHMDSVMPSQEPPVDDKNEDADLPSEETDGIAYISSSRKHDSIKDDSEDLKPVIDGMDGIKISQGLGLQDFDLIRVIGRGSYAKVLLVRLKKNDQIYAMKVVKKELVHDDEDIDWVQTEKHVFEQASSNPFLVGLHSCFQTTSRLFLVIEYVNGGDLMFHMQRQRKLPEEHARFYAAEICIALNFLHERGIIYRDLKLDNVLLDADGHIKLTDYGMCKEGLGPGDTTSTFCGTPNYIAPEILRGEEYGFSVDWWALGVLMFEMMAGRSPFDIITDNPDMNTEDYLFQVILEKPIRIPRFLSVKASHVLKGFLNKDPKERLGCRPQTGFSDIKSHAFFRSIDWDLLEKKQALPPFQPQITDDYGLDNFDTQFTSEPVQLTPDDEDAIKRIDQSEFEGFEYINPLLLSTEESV

[6] = molecular target: Ribosomal protein S6 kinase alpha-1 (Homo sapiens) (UniProt Q15418); assay: Percentage RSK1 activity remaining in the presence of 2uM inhibitor; conditions: filed as antagonist
Ribosomal protein S6 kinase alpha-1 (Homo sapiens), sequence (Q15418 whole entry): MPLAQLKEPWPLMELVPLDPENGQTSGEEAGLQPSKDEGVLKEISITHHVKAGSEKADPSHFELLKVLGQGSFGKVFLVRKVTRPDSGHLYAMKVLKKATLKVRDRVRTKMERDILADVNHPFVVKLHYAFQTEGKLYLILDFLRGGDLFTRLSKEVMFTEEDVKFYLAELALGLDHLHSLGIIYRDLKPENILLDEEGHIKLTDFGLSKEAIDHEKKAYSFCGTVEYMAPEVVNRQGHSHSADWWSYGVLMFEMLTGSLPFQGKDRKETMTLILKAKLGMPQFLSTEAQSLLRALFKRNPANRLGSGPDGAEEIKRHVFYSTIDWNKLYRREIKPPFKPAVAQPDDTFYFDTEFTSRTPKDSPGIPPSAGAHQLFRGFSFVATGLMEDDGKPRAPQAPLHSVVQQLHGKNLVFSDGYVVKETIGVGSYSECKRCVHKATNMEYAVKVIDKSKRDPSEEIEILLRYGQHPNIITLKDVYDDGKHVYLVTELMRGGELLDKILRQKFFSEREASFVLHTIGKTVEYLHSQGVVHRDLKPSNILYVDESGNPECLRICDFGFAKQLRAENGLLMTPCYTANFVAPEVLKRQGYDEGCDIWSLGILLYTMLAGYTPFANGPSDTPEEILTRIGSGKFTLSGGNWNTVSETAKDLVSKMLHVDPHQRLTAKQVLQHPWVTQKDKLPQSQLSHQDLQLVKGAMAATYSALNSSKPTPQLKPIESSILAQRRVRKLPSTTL

[7] = molecular target: MAP kinase-interacting serine/threonine-protein kinase 1 (Homo sapiens) (UniProt Q9BUB5); assay: Percentage MNK1 activity remaining in the presence of 2uM inhibitor
MAP kinase-interacting serine/threonine-protein kinase 1 (Homo sapiens), sequence (Q9BUB5 whole entry, looked up): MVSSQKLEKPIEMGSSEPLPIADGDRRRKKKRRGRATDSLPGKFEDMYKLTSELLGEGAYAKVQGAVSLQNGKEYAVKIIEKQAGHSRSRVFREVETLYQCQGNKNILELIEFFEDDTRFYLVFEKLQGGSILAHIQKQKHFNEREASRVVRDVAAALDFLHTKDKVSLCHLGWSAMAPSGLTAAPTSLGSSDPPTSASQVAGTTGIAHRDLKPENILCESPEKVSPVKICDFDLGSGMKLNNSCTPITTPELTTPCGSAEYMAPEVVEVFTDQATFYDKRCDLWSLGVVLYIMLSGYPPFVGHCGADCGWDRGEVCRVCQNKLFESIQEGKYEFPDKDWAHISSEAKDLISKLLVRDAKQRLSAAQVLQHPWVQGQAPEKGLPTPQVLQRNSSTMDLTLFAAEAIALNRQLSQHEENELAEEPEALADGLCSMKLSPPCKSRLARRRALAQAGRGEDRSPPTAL

[8] = molecular target: RAC-alpha serine/threonine-protein kinase (Homo sapiens) (UniProt P31749); assay: Percentage PKBalpha activity remaining in the presence of 3uM inhibitor
[9] = molecular target: Mitogen-activated protein kinase 1 (Homo sapiens) (UniProt P28482); assay: Percentage ERK2 activity remaining in the presence of 3uM inhibitor
Mitogen-activated protein kinase 1 (Homo sapiens), sequence (P28482 whole entry): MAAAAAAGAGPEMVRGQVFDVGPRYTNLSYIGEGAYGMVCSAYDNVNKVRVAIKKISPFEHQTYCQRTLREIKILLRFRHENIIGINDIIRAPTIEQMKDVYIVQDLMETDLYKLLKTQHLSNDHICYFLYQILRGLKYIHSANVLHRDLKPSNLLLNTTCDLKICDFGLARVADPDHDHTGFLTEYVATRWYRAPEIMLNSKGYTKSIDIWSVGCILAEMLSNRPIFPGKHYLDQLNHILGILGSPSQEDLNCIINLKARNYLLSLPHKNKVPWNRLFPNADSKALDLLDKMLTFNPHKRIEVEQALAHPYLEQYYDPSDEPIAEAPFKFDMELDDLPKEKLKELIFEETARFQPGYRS

[10] = molecular target: Ribosomal protein S6 kinase alpha-5 (Homo sapiens) (UniProt O75582); assay: Percentage MSK1 activity remaining in the presence of 3uM inhibitor
Ribosomal protein S6 kinase alpha-5 (Homo sapiens), sequence (O75582 whole entry, looked up): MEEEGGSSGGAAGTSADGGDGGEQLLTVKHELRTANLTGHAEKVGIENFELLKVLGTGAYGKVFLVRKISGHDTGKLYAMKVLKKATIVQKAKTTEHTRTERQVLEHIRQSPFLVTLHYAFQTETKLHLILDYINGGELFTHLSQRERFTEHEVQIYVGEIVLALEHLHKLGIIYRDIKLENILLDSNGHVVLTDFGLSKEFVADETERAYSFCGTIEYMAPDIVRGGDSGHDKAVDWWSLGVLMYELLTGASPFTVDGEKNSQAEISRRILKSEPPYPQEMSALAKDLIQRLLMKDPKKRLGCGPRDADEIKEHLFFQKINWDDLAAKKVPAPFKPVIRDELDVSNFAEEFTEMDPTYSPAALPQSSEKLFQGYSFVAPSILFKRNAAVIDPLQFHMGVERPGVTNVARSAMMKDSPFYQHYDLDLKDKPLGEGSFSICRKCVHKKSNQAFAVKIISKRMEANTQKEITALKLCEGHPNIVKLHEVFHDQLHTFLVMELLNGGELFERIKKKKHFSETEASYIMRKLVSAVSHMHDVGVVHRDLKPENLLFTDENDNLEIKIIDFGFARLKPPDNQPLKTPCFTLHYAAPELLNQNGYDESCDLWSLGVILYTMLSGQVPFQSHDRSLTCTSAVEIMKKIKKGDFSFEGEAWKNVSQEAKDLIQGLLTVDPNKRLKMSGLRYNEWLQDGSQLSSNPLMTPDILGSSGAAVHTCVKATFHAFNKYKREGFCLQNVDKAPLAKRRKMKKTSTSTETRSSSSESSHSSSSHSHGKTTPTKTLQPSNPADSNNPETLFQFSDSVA

[11] = molecular target: T3, Serine/threonine-protein kinase Sgk1 (Homo sapiens) (UniProt O00141); assay: Percentage SGK1 activity remaining in the presence of 3uM inhibitor
T3 sequence (whole entry): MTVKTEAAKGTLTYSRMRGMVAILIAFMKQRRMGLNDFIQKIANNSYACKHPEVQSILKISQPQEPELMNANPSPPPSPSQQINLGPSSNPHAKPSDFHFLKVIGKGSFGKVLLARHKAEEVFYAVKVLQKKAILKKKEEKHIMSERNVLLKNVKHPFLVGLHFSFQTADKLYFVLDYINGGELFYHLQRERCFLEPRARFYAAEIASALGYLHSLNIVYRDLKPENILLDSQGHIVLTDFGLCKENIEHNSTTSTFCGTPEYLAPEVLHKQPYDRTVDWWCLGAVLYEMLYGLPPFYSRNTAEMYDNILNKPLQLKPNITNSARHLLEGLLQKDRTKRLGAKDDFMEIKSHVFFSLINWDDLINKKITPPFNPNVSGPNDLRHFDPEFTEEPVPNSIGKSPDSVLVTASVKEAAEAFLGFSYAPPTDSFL

[12] = molecular target: RAC-beta serine/threonine-protein kinase (Homo sapiens) (UniProt P31751); assay: Percentage PKBbeta activity remaining in the presence of 3uM inhibitor
RAC-beta serine/threonine-protein kinase (Homo sapiens), sequence (P31751 whole entry): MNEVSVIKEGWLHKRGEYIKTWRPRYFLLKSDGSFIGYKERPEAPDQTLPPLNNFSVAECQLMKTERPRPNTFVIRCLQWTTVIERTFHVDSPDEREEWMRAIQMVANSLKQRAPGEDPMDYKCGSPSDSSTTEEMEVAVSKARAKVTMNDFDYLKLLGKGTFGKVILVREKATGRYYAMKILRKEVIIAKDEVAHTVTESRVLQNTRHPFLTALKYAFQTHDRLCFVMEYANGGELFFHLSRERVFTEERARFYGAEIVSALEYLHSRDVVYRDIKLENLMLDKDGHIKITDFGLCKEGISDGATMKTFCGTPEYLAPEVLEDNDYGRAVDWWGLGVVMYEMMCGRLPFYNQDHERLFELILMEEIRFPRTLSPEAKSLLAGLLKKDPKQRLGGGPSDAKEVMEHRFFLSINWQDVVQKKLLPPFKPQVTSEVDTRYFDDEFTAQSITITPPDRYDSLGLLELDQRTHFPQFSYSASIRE

[13] = molecular target: T4, Serine/threonine-protein kinase Chk1 (Homo sapiens) (UniProt O14757); assay: Percentage CHK1 activity remaining in the presence of 3uM inhibitor
T4 sequence (whole entry): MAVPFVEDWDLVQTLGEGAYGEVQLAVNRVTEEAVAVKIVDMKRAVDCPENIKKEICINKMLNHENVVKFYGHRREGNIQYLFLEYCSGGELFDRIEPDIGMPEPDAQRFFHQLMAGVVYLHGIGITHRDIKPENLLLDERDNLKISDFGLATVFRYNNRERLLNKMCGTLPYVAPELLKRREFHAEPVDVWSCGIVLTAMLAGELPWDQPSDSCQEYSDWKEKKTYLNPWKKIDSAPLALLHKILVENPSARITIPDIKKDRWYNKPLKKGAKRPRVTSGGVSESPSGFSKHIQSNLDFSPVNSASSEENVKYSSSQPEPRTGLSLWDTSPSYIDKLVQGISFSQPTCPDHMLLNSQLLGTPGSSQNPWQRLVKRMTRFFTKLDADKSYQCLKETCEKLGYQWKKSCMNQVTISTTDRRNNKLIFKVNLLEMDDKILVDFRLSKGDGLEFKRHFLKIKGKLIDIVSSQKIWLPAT

[14] = molecular target: Mitogen-activated protein kinase 10 (Homo sapiens) (UniProt P53779); assay: Percentage JNK3 activity remaining in the presence of 3uM inhibitor
Mitogen-activated protein kinase 10 (Homo sapiens), sequence (P53779 whole entry): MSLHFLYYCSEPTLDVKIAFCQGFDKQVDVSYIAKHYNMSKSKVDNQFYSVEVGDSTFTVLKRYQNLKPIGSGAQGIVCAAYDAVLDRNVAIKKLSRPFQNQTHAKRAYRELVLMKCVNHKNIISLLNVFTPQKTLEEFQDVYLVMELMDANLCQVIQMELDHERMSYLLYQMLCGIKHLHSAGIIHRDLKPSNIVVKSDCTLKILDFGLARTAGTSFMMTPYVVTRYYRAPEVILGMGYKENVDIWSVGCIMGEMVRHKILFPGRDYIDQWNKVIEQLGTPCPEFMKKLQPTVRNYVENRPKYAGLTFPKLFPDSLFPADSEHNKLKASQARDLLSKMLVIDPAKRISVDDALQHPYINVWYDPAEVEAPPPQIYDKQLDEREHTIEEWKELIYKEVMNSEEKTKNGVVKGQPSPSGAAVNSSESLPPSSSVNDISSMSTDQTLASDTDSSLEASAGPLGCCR

[15] = molecular target: MAP kinase-activated protein kinase 2 (Homo sapiens) (UniProt P49137); assay: Percentage MAPKAPK2 activity remaining in the presence of 3uM inhibitor
MAP kinase-activated protein kinase 2 (Homo sapiens), sequence (P49137 whole entry, looked up): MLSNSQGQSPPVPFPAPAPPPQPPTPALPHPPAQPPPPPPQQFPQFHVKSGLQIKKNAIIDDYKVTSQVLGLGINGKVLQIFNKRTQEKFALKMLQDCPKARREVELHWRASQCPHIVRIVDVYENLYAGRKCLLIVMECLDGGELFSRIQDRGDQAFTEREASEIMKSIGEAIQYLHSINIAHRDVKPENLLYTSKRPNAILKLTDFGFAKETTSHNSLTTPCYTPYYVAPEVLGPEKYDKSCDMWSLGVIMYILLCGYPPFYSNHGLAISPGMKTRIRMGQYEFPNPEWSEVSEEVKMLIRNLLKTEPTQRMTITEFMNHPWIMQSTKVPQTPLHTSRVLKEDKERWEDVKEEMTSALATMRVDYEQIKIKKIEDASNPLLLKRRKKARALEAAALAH

Maternal embryonic leucine zipper kinase (Homo sapiens), sequence (Q14680 whole entry, looked up): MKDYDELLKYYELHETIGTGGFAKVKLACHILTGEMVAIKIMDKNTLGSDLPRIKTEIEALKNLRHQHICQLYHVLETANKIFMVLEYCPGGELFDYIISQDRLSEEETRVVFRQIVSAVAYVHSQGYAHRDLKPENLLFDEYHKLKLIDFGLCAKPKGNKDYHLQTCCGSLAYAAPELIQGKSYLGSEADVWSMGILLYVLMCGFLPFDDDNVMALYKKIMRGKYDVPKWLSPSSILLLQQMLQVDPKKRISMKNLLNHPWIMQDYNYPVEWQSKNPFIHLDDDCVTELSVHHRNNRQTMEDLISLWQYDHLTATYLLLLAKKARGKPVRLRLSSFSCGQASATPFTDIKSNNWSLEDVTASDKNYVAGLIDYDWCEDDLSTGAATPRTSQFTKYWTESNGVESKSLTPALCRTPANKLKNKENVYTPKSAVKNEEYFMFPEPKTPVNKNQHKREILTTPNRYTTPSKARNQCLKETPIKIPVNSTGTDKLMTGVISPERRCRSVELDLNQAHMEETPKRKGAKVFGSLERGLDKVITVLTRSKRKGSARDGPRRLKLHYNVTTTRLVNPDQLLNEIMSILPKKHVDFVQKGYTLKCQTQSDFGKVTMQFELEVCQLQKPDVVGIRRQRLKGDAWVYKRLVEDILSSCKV

| Activity [1] | Activity [2] | Activity [3] | Activity [4] | Activity [5] | Activity [6] | Activity [7] | Activity [8] | Activity [9] | Activity [10] | Activity [11] | Activity [12] | Activity [13] | Activity [14] | Activity [15] | Compound |
| --- | --- | --- | --- | --- | --- | --- | --- | --- | --- | --- | --- | --- | --- | --- | --- |
| 106% | 78% | 62% | 84% | 81% | 50% | 85% | – | – | – | – | – | – | – | – | Cn1cc(C2=C(c3ccc(Cl)cc3Cl)C(=O)NC2=O)c2ccccc21 |
| – | – | – | – | – | – | – | 82% | 79% | 75% | 107% | 97% | 88% | 89% | 94% | Cc1ccc(-c2c(C(=O)CF)n(CCCO)c3ncnc(N)c23)cc1 |
